Results on five compounds are retold here after paper PMC9320521, “Detection of Unprecedented CYP74 Enzyme in Mammal: Hydroperoxide Lyase CYP74C44 of the Bat Sturnira hondurensis” (International Journal of Molecular Sciences, 2022).

The subject of this assay is CYP74C44 (ShHPL). As to the kind of experiment: UV absorbance decrease at […] nm. It counts as biochemical, Sturnira hondurensis. The following applies: Na phosphate buffer pH 7.0, 25 °C, 5 to 150 μM substrate.
As for `CCCCC/C=C\C=C\[C@H](CCCCCCCC(=O)O)OO` [9-HPOD, (9S,10E,12Z)-9-Hydroperoxy-10,12-octadecadienoic], the Km – broadly, the concentration of substrate that gives half-maximal velocity – amounted to 46.6 ± 7.2 µM. `CC/C=C\C/C=C\C=C\[C@H](CCCCCCCC(=O)O)OO` [9-HPOT, (9S,10E,12Z,15Z)-9-hydroperoxy-10,12,15-octadecatrienoic]: the Km worked out at 20.9 ± 5.6 µM. Under `CCCCC[C@@H](/C=C/C=C\CCCCCCCC(=O)O)OO` [13-HPOD, (9Z,11E,13S)-13-hydroperoxy-9,11-octadecadienoic] stands 57.9 ± 13.3 µM; under `CC/C=C\C[C@@H](/C=C/C=C\CCCCCCCC(=O)O)OO` [13-HPOT, (9Z,11E,13S,15Z)-13-hydroperoxy-9,11,15-octadecatrienoic], 28.4 ± 6.7 µM; under `CC/C=C\C[C@@H](/C=C/C=C\C/C=C\C/C=C\CCCC(=O)O)OO` [15-HPEPE], 8.17 ± 1.6 µM.
